From US9532519B2, “Plant growth regulator and use thereof” (Japan Science and Technology Agency, priority 2006, dated 2017) come the findings set out here.

The test system of this experiment is Arabidopsis. Nature of the experiment: Influence 4 of treatment condition on seeds of Arabidopsis (two weeks of 1 mM-GSSG). The format is in vivo. The settings on record: 1 mM-GSSG only for two weeks in a specific growth period. The procedure:
Seeds of Arabidopsis were sown in pods filled with soil immersed in water. The pods were transferred to trays filled with water containing 1 mM-GSSG and cultivated there only for two weeks that are the first and second weeks (0th-14th day), the second and third weeks (8th-21st day), the third and fourth weeks (15th-28th day), the fourth and fifth weeks (22nd-35th day), the fifth and sixth weeks (29th-42nd day), or the sixth and seventh weeks (36th-49th day) after the sowing. That is, Arabidopsis were treated with 1 mM-GSSG only for two weeks in a specific growth period.
Arabidopsis was cultivated under the same conditions as those described in <1. Influence of oxidized glutathione on growth of Arabidopsis> except for the above condition.
The seed weight per one pod, obtained from Arabidopsis thus cultivated (three plants in each pod), was measured.

For oxidized glutathione [GSSG], the “seed weight per one pod vs not treated” value was “significantly increased the seed weight”.
